Source: PMC8286840, “Identifying SARS-CoV-2 antiviral compounds by screening for small molecule inhibitors of Nsp3 papain-like protease” (Biochemical Journal, 2021)
Counter-ions that a name gives are not always drawn. Like-named read-outs stand apart in the source and are kept apart here.

Assays:
[1] = target: T1, SARS-CoV-2 PLpro (nsp3 1564–1878) (Severe acute respiratory syndrome coronavirus 2, UniProt P0DTD1); assay: biochemical; parameters: FRET-quenched peptide (Pro3) cleavage by PLpro, 10 min pre-incubation, slope over 20 min, normalised to no-compound control; settings: low concentration screen, read-out: % of control remaining
[2] = target: T1, SARS-CoV-2 PLpro (nsp3 1564–1878); assay: biochemical; parameters: FRET-quenched peptide (Pro3) cleavage by PLpro, 10 min pre-incubation, slope over 20 min, normalised to no-compound control; settings: high concentration screen, read-out: % of control remaining

CCNC(=O)[C@@H]1CCCN1C(=O)[C@H](CCCNC(=N)N)NC(=O)[C@H](CC(C)C)NC(=O)[C@@H](COC(C)(C)C)NC(=O)[C@H](Cc1ccc(O)cc1)NC(=O)[C@H](CO)NC(=O)[C@H](Cc1c[nH]c2ccccc12)NC(=O)[C@H](Cc1cnc[nH]1)NC(=O)[C@@H]1CCC(=O)N1 [Buserelin (Acetate)] gave a remaining activity at 1.25 µM ([1]; Well no.=8151) of 106% and a remaining activity at 3.75 µM ([2]; Well no.=8151) of 104%.

Cc1nc2ccccn2c(=O)c1CCN1CCC(C(=O)c2ccc(F)cc2)CC1 [Pirenperone] gave a remaining activity at 1.25 µM ([1]; Well no.=1359) of 101% and a remaining activity at 3.75 µM ([2]; Well no.=1359) of 102%.

In the case of C[C@@]12CCc3occc3[C@H]1CC[C@]13CC(=O)[C@H](CC[C@H]12)C3 [16-Oxocafestol], the remaining activity at 1.25 µM ([1]; Well no.=3669) is reported as 92.6% and the remaining activity at 3.75 µM ([2]; Well no.=3669) is reported as 91.5%.

For C[N+](C)(C)CCCCCC[N+](C)(C)C [Hexamethonium dichloride], the remaining activity at 1.25 µM ([1]; Well no.=656) was 90.7% and the remaining activity at 3.75 µM ([2]; Well no.=656) was 89.9%.

In the case of Nc1ncnc2c1ncn2[C@@H]1O[C@H](COP(=O)(O)O)[C@@H](O)[C@H]1O [Adenosine 5'-monophosphate monohydrate], the remaining activity at 1.25 µM ([1]; Well no.=7902) is reported as 96.3%, the remaining activity at 1.25 µM ([1]; Well no.=8121) is reported as 106% and the remaining activity at 3.75 µM ([2]; Well no.=7902) is reported as 101%.

In the case of CC(=O)Nc1cccc2c1c(Sc1ccc(Cl)cc1)c(C)n2CC(=O)O [AZD1981], the remaining activity at 1.25 µM ([1]; Well no.=7131) is reported as 98.7% and the remaining activity at 3.75 µM ([2]; Well no.=7131) is reported as 95.7%.

With Cc1ccc(-c2cc(C(F)(F)F)nn2-c2ccc(S(N)(=O)=O)cc2)cc1 [Celecoxib] the remaining activity at 1.25 µM ([1]; Well no.=1818) was 88.6% and the remaining activity at 3.75 µM ([2]; Well no.=1818) was 88.2%.

FC(F)(F)c1ccccc1-n1ccnc1 [1-[2-(Trifluoromethyl)phenyl]imidazole] showed a remaining activity at 1.25 µM ([1]; Well no.=1533) of 89.9% and a remaining activity at 3.75 µM ([2]; Well no.=1533) of 90.7%.

With CCCCc1oc2ccc(NS(C)(=O)=O)cc2c1C(=O)c1ccc(OCCCN(CCCC)CCCC)cc1 [Dronedarone] the remaining activity at 1.25 µM ([1]; Well no.=8285) was 100% and the remaining activity at 3.75 µM ([2]; Well no.=8285) was 94.4%.

Work on O=C1NCC2(CCN(CCc3ccccc3)CC2)O1 [Fenspiride (Hydrochloride)] yielded a remaining activity at 1.25 µM ([1]; Well no.=6705) of 104% and a remaining activity at 3.75 µM ([2]; Well no.=6705) of 100%.

For CC(N)(COP(=O)(O)O)C(=O)O (stereo not shown) [2-methyl-O-phosphonoserine], the remaining activity at 1.25 µM ([1]; Well no.=5427) was 96.2% and the remaining activity at 3.75 µM ([2]; Well no.=5427) was 101%.

Molecule CC[C@H]1CN2CCc3cc(OC)c(OC)cc3[C@@H]2C[C@@H]1C[C@H]1NCCc2cc(OC)c(OC)cc21 has a remaining activity at 1.25 µM ([1]; Well no.=3424) of 92.3% and a remaining activity at 3.75 µM ([2]; Well no.=3424) of 98%.

In the case of O=C(O)C[C@H](O)C(=O)O [(S)-2-Hydroxysuccinic acid], the remaining activity at 1.25 µM ([1]; Well no.=6825) is reported as 105% and the remaining activity at 3.75 µM ([2]; Well no.=6825) is reported as 100%.

With CC(C)[C@H](CO)Nc1nc(Nc2cccc(Cl)c2)c2ncn(C(C)C)c2n1 [Purvalanol A] the remaining activity at 1.25 µM ([1]; Well no.=1050) was 86.7%, the remaining activity at 1.25 µM ([1]; Well no.=2606) was 91.1% and the remaining activity at 3.75 µM ([2]; Well no.=1050) was 86.5%. It also gave a remaining activity at 3.75 µM ([2]; Well no.=2606) of 92%.

O=C(O)c1cn(-c2ccc(F)cc2)c2cc(N3CCNCC3)c(F)cc2c1=O [Sarafloxacin] gave a remaining activity at 1.25 µM ([1]; Well no.=2241) of 101% and a remaining activity at 3.75 µM ([2]; Well no.=2241) of 101%.

Work on CC(=O)C(C)=O [2,3-Butanedione] yielded a remaining activity at 1.25 µM ([1]; Well no.=687) of 98.3% and a remaining activity at 3.75 µM ([2]; Well no.=687) of 97.2%.

Cc1ccc(-c2nc(N)nc3c2nnn3Cc2cccc(CO[C@H]3CCOC3)n2)o1 [CPI-444] gave a remaining activity at 1.25 µM ([1]; Well no.=8549) of 105% and a remaining activity at 3.75 µM ([2]; Well no.=8549) of 97%.

In the case of N#Cc1ccc(C(c2ccc(C#N)cc2)n2cncn2)cc1 [Letrozole], the remaining activity at 1.25 µM ([1]; Well no.=1822) is reported as 97.8% and the remaining activity at 3.75 µM ([2]; Well no.=1822) is reported as 98.2%.

In the case of N#C/C(=C\c1ccc(O)c(O)c1)C(=O)NCCCNC(=O)/C(C#N)=C/c1ccc(O)c(O)c1 [Tyrphostin AG 537], the remaining activity at 1.25 µM ([1]; Well no.=1289) is reported as 103% and the remaining activity at 3.75 µM ([2]; Well no.=1289) is reported as 99.7%.

Molecule O=Cc1ccc(O)cc1 [p-Hydroxybenzaldehyde] has a remaining activity at 1.25 µM ([1]; Well no.=6531) of 103% and a remaining activity at 3.75 µM ([2]; Well no.=6531) of 103%.

For C[C@H](CCCC(C)(C)O)[C@H]1CC[C@H]2[C@@H]3CC=C4C[C@@H](O)CC[C@]4(C)[C@H]3CC[C@]12C [25-Hydroxycholesterol], the remaining activity at 1.25 µM ([1]; Well no.=6353) was 101% and the remaining activity at 3.75 µM ([2]; Well no.=6353) was 101%.

Molecule Cc1c(COc2cc(OCc3cccc(C#N)c3)c(CN3C[C@H](O)C[C@@H]3C(=O)O)cc2Cl)cccc1-c1ccc2c(c1)OCCO2 [BMS-1166] has a remaining activity at 1.25 µM ([1]; Well no.=8310) of 96.7% and a remaining activity at 3.75 µM ([2]; Well no.=8310) of 96.4%.

For N#C[C@@H]1CCCN1C(=O)CNC12CC3CC(CC(O)(C3)C1)C2 [Vildagliptin (LAF-237)], the remaining activity at 1.25 µM ([1]; Well no.=4885) was 99.1% and the remaining activity at 3.75 µM ([2]; Well no.=4885) was 99.9%.

With CN=c1nc(-c2ccccc2)n(-c2ccccc2)s1 [SCH-202676 hydrobromide] the remaining activity at 1.25 µM ([1]; Well no.=1314) was 98.7% and the remaining activity at 3.75 µM ([2]; Well no.=1314) was 97.4%.

CN(N=O)c1cc(O)ccc1O [Dephostatin] gave a remaining activity at 1.25 µM ([1]; Well no.=392) of 97.4% and a remaining activity at 3.75 µM ([2]; Well no.=392) of 97.3%.

With C=CC(=O)Nc1cccc(Oc2nc(Nc3ccc(N4CCN(C)CC4)cc3)ncc2Cl)c1 [WZ3146] the remaining activity at 1.25 µM ([1]; Well no.=4711) was 103% and the remaining activity at 3.75 µM ([2]; Well no.=4711) was 106%.

Molecule CCNC(=O)c1noc(-c2cc(C(C)C)c(O)cc2O)c1-c1ccc(CN2CCOCC2)cc1 [AUY922 (NVP-AUY922)] has a remaining activity at 1.25 µM ([1]; Well no.=5005) of 103% and a remaining activity at 3.75 µM ([2]; Well no.=5005) of 102%.

Molecule O=C(Nc1ccc(S(=O)(=O)Nc2nccs2)cc1)C(c1ccccc1)c1ccccc1 [2,2-diphenyl-N-{4-[(1,3-thiazol-2-ylamino)sulfonyl]phenyl}acetamide] has a remaining activity at 1.25 µM ([1]; Well no.=5558) of 92.9% and a remaining activity at 3.75 µM ([2]; Well no.=5558) of 96.4%.

O=C(O)CCC(=O)C(=O)O [2-Ketoglutaric acid] gave a remaining activity at 1.25 µM ([1]; Well no.=7061) of 103% and a remaining activity at 3.75 µM ([2]; Well no.=7061) of 98.4%.

CCOc1ccc2c(c1)C(C)=CC(C)(C)N2 [Ethoxyquin] was tested, and the remaining activity at 1.25 µM ([1]; Well no.=4145) was 93.7% and the remaining activity at 3.75 µM ([2]; Well no.=4145) was 96.9%.

For CCOc1ccc(C(Nc2ccccn2)c2ccc3ccc(C)nc3c2O)cc1C (stereo not shown) [HLM006474], the remaining activity at 1.25 µM ([1]; Well no.=5926) was 104% and the remaining activity at 3.75 µM ([2]; Well no.=5926) was 100%.

Work on Cc1cn([C@H]2O[C@@H](CO)[C@H](O)[C@H]2F)c(=O)[nH]c1=O [Clevudine] yielded a remaining activity at 1.25 µM ([1]; Well no.=8012) of 98%, a remaining activity at 1.25 µM ([1]; Well no.=8342) of 92.4% and a remaining activity at 3.75 µM ([2]; Well no.=8012) of 100%. For the same molecule, the remaining activity at 3.75 µM ([2]; Well no.=8342) was 91.2%.

Oc1ccc2c3c1O[C@H]1c4oc5ccccc5c4C[C@@]4(O)[C@@H](C2)N(CC2CC2)CC[C@]314 [Naltriben methanesulfonate hydrate] was tested, and the remaining activity at 1.25 µM ([1]; Well no.=1698) was 95.8% and the remaining activity at 3.75 µM ([2]; Well no.=1698) was 95.9%.

CC(=O)NCCCC[C@H](N)C(=O)O [Nepsilon-Acetyl-L-lysine] showed a remaining activity at 1.25 µM ([1]; Well no.=6211) of 116% and a remaining activity at 3.75 µM ([2]; Well no.=6211) of 106%.
